Consider nine molecules from patent US20120202690A1, “HERBICIDAL COMPOUNDS” (SYNGENTA LIMITED, priority 2009, published 2012).

Common to all, as to format: in vivo
In assay [1] the test system is Alopecurus myosuroides (ALOMY). The assay is described as follows: Pre-emergence biological efficacy, glasshouse, 1000 g/ha, evaluated after 13 days (100=total damage to plant; 0=no damage to plant). The conditions noted are these: Alopecurus myosuroides, 312 h, rate 1,000 g/ha, read-out: Percentage damage caused to weed species, pre-emergence, ALOMY. The gist of the method:
(§1)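 Sowing: standard soil, pots. Growth: glasshouse, 24/16° C. day/night, 14 hours light, 65% humidity. Watering: twice daily.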

The test system of assay [2] is Amaranthus retroflexus (AMARE). The assay is described as above. The conditions noted are these: Amaranthus retroflexus, 312 h, rate 1,000 g/ha, read-out: Percentage damage caused to weed species, pre-emergence, AMARE. The gist of the method:
as §1

Assay [3] relates to Echinochloa crus-galli (ECHCG). The description is as above. The following applies: Echinochloa crus-galli, 312 h, rate 1,000 g/ha, read-out: Percentage damage caused to weed species, pre-emergence, ECHCG. The gist of the method:
as §1

Assay [4] concerns Ipomoea hederaceae (IPOHE). The assay is described as above. The conditions noted are these: Ipomoea, 312 h, rate 1,000 g/ha, read-out: Percentage damage caused to weed species, pre-emergence, IPOHE. In outline: as §1
The test system of assay [5] is Setaria faberi (SETFA). The assay is described as above. The conditions noted are these: Setaria faberi, 312 h, rate 1,000 g/ha, read-out: Percentage damage caused to weed species, pre-emergence, SETFA. The gist of the method:
as §1

Assay [6] has as its system Solanum nigrum (SOLNI). Described as above. The following applies: Solanum nigrum, 312 h, rate 1,000 g/ha, read-out: Percentage damage caused to weed species, pre-emergence, SOLNI. In outline:
as §1

The subject of assay [7] is Alopecurus myosuroides (ALOMY). The assay is described as follows: Post-emergence biological efficacy, glasshouse, 500 or 1000 g/ha, evaluated after 13 days (100=total damage to plant; 0=no damage to plant). The following applies: Alopecurus myosuroides, 312 h, rate 1,000 g/ha, read-out: Percentage damage caused to weed species, post-emergence, ALOMY. In outline: (§2)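 Sow seeds in standard potting soil. Treat after emergence. Keep treated plants in the glasshouse at 24° C. by day and 16° C. by night, with a 14-hour photoperiod, 65% humidity and two waterings daily.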

The test system of assay [8] is Amaranthus retroflexus (AMARE). Described as above. The following applies: Amaranthus retroflexus, 312 h, rate 1,000 g/ha, read-out: Percentage damage caused to weed species, post-emergence, AMARE. The gist of the method:
as §2

For assay [9], the system named is Echinochloa crusgaffi (ECHCG). The description is as above. The conditions noted are these: Echinochloa, 312 h, rate 1,000 g/ha, read-out: Percentage damage caused to weed species, post-emergence, ECHCG. The gist of the method:
as §2

Assay [10] has as its system Ipomoea hederaceae (IPOHE). The description is as above. The following applies: Ipomoea, 312 h, rate 1,000 g/ha, read-out: Percentage damage caused to weed species, post-emergence, IPOHE. The gist of the method: as §2
The test system of assay [11] is Setaria faberi (SETFA). Described as above. The conditions noted are these: Setaria faberi, 312 h, rate 1,000 g/ha, read-out: Percentage damage caused to weed species, post-emergence, SETFA. The gist of the method:
as §2

Assay [12] relates to Solanum nigrum (SOLNI). The description is as above. The following applies: Solanum nigrum, 312 h, rate 1,000 g/ha, read-out: Percentage damage caused to weed species, post-emergence, SOLNI. The gist of the method:
as §2

With `COC(=O)c1nc(-c2ccc(Cl)c(N(C)C)c2F)nc2[nH]c(C)c(C)c12` [Compound 1-120, 2-(4-Chloro-3-dimethylamino-2-fluorophenyl)-5,6-dimethyl-4-methoxycarbonyl-7H-pyrrolo[2,3-d]pyrimidine], the pest or weed control at 1000 g/ha (in [1]; in assay [2]; in assay [3]; in [4]; with Setaria faberi (SETFA) [5]; in the assay on Solanum nigrum (SOLNI) [6]) was 0% throughout. The pest or weed control at 1000 g/ha in assay [7] is 0%; in assay [8], 10%; in assay [9], 0%; in assay [10] it was 20%; in the assay with Setaria faberi (SETFA) [11], 0%; in the assay with Solanum nigrum (SOLNI) [12], 20%.
For `O=C(O)c1nc(Cl)nc2[nH]ccc12` [Compound 1-121, 4-carboxy-2-chloro-7H-pyrrolo[2,3-d]pyrimidine], the pest or weed control at 1000 g/ha (in [1]; in assay [2]; in assay [3]; in [4]; with Setaria faberi (SETFA) [5]; with Solanum nigrum (SOLNI) [6]) was 0% in each case. Also, the pest or weed control at 1000 g/ha in assay [7] was 0%; in assay [8], 0%; in [9], 0%; in [10], 0%; in the assay on Setaria faberi (SETFA) [11], 0%; in the assay with Solanum nigrum (SOLNI) [12], 10%.
On to `COC(=O)c1nc(Cl)nc2[nH]c(C)cc12` [Compound 1-126, 2-Chloro-4-methoxy-carbonyl-6-methyl-7H-pyrrolo[2,3-d]pyrimidine], for which the pest or weed control at 1000 g/ha (in assay [1]; in assay [2]; in assay [3]; in assay [4]; with Setaria faberi (SETFA) [5]; in the assay on Solanum nigrum (SOLNI) [6]) was 0% each time. The pest or weed control at 1000 g/ha (in assay [7]; in assay [8]; in assay [9]; in assay [10]; with Setaria faberi (SETFA) [11]; in the assay on Solanum nigrum (SOLNI) [12]) was 0% each time.
In the case of `COC(=O)c1nc(-c2ccc(Cl)c(OC)c2F)nc2c1c(C)cn2C` [Compound 2-64, 2-(4-Chloro-2-fluoro-3-methoxyphenyl)-5,7-dimethyl-4-methoxycarbonyl-7H-pyrrolo[2,3-d]pyrimidine], the pest or weed control at 1000 g/ha in [1] came to 0%; in assay [2], 30%; in assay [3], 0%; in [4] it was 50%; with Setaria faberi (SETFA) [5] it was 0%; with Solanum nigrum (SOLNI) [6], 40%. Further, the pest or weed control at 1000 g/ha worked out at 0% in [7]; 30% in [8]; 0% in [9]; 40% in [10]; 0% with Setaria faberi (SETFA) [11]; 60% in the assay on Solanum nigrum (SOLNI) [12].
Consider `COC(=O)c1nc(-c2ccc(Cl)c(F)c2)nc2c1ccn2CC1CC1` [Compound 5-18, 2-(4-Chloro-3-fluorophenyl)-7-cyclopropylmethyl-4-methoxycarbonyl-7H-pyrrolo[2,3-d]pyrimidine], for which the pest or weed control at 1000 g/ha (in assay [1]; in assay [2]; in [3]; in [4]; in the assay with Setaria faberi (SETFA) [5]; in the assay with Solanum nigrum (SOLNI) [6]) was 0% in each case. Moreover, the pest or weed control at 1000 g/ha in [7] is 0%; in [8], 0%; in [9], 0%; in assay [10], 0%; in the assay with Setaria faberi (SETFA) [11] it was 0%; with Solanum nigrum (SOLNI) [12], 20%.
`Cc1cc2c(C(=O)O)nc(-c3ccc(Cl)c(F)c3)nc2n1CC1CC1` [Compound 5-21, 4-Carboxy-2-(4-chloro-3-fluorophenyl)-7-cyclopropylmethyl-6-methyl-7H-pyrrolo[2,3-d]pyrimidine]: the pest or weed control at 1000 g/ha in assay [1] is 10%; in assay [2], 100%; in assay [3] it was 0%; in [4], 30%; with Setaria faberi (SETFA) [5], 10%; with Solanum nigrum (SOLNI) [6], 40%. Besides, the pest or weed control at 1000 g/ha in [7] amounted to 10%; in [8] it was 70%; in [9] it was 10%; in assay [10] it was 30%; with Setaria faberi (SETFA) [11], 10%; in the assay on Solanum nigrum (SOLNI) [12], 50%.
For the molecule `COc1c(Cl)ccc(-c2nc(C(=O)O)c3cc(C)n(CC4CC4)c3n2)c1F` [Compound 5-65, 4-Carboxy-2-(4-chloro-2-fluoro-3-methoxyphenyl)-7-cyclopropymethyl-6-methyl-7H-pyrrolo[2,3-d]pyrimidine], the pest or weed control at 1000 g/ha (in [1]; in assay [2]; in assay [3]; in assay [4]; in the assay on Setaria faberi (SETFA) [5]; in the assay on Solanum nigrum (SOLNI) [6]) was 0% in each case. The pest or weed control at 1000 g/ha turned out to be 0% in assay [7]; 10% in assay [8]; 0% in [9]; 10% in assay [10]; 20% in the assay with Setaria faberi (SETFA) [11]; 20% in the assay on Solanum nigrum (SOLNI) [12].
With `COC(=O)c1nc(-c2ccc(Cl)c(OC)c2F)nc2c1cc(C)n2CC1CC1` [Compound 5-66, 2-(4-Chloro-2-fluoro-3-methoxyphenyl)-7-cyclopropylmethyl-4-methoxycarbonyl-6-methyl-7H-pyrrolo[2,3-d]pyrimidine], the pest or weed control at 1000 g/ha (in assay [1]; in assay [2]; in assay [3]; in [4]; with Setaria faberi (SETFA) [5]; in the assay on Solanum nigrum (SOLNI) [6]) was 0% in each case. For the same molecule, the pest or weed control at 1000 g/ha in assay [7] is 10%; in [8], 0%; in [9], 10%; in assay [10] it was 0%; in the assay with Setaria faberi (SETFA) [11], 20%; with Solanum nigrum (SOLNI) [12], 20%.
Regarding `O=C(O)c1nc(-c2ccc(Cl)c(F)c2)nc2c1ccn2Cc1ccccc1` [Compound 6-17, 4-Carboxy-2-(4-chloro-3-fluorophenyl)-7-phenylmethyl-7H-pyrrolo[2,3-d]pyrimidine], the pest or weed control at 1000 g/ha (in assay [1]; in assay [2]; in assay [3]; in [4]; in the assay with Setaria faberi (SETFA) [5]; in the assay on Solanum nigrum (SOLNI) [6]) was 0% in each case. Besides, the pest or weed control at 1000 g/ha in [7] turned out to be 0%; in [8], 20%; in [9] it was 0%; in assay [10] it was 0%; in the assay with Setaria faberi (SETFA) [11], 0%; in the assay with Solanum nigrum (SOLNI) [12], 40%.
